From publication PMC6320938 (Molecules, 2018)

What was measured:
HL-60 cells = conditions: via Cu, Zn-superoxide dismutase inhibition; cited from earlier work
[1] = tested on: ear edema induced by xylene; design: method as in PMID 19023804; conditions: ear edema induced by xylene in mice; cited from earlier work
[2] = tested on: rhubarb-induced spleen deficiency; design: method as in PMID 24815219; conditions: rhubarb-induced spleen deficiency in rats; cited from earlier work
[3] = design: method as in PMID 27019565; conditions: oral raw vs wheat bran-processed Atractylodis Rhizoma; cited from earlier work
in vivo = conditions: for AUC(0-t): AUC0–t; for AUC(0-inf): AUC0–∞; for MRT inf: MRT0–∞
Excerpt: The validated UPLC-MS/MS method was used to measure atractylenolides I, II, and III, and atractyloside A simultaneously in rat plasma after oral administration of raw and wheat bran-processed Atractylodis Rhizoma at a dose of 3.75 g/kg. The integrated pharmacokinetics data were estimated by Drug and Statistics 3.0 (BioGuider Medicinal Technology Co. Ltd, Shanghai, China).
A UPLC system (Acquity, Waters, Milford, MA, USA) coupled with a mass spectrometer detector (XEVO-TQ-S, Waters) was used. The separation was performed on an Acquity UPLC BEH C18 column (Waters; 2.1 × 100 mm, 1.7 µm). The mobile phase consisted of acetonitrile (solution A) and ultrapure water with 0.1% methanoic acid (solution B). […] The mobile phase was delivered at a flow rate of 0.30 mL/min. The column and autosampler temperature were maintained at 40 and 10 °C, respectively. The injection volume was 2 µL and the eluent was detected by mass spectrometry with electrospray ionization (ESI) in positive scan mode. The optimized detector parameters were as follows: positive ESI with a capillary voltage of 3.0 kV; desolvation temperature of 400 °C; desolvation gas flow of 800 L/h, core gas flow of 150 L/h, and nebulizer gas flow of 7 bar. Selected multiple reaction monitoring (MRM), using the precursor to product ion combinations of m/z 233.3→187.2, 231.2→185.2, 249.2→231.2, 471.3→203.2, 151.9→110.16, was used to detect atractylenolides I, II, and III, atractyloside A, and the internal standard (IS), acetaminophen, respectively (Table 8).
Plasma samples were extracted by methanol precipitation. The plasma sample (200 µL) was spiked with IS solution (100 µL, 52 ng/mL), extracted with methanol (800 µL) by vortexing for 2 min, centrifuged at 17,108× g for 10 min, and then evaporated to dryness under a gentle stream of nitrogen. The residue was reconstituted in the mobile phase (100 µL), vortexed for 1 min, and centrifuged at 17,108× g for 10 min. Finally, the supernatant (3 µL) was injected into the UPLC-MS/MS system for analysis.
Ten rats were randomly divided into two groups (five per group). The two groups were orally administered raw Atractylodis Rhizoma at a dose of 3.75 g/kg (equal to 0.48, 0.6, 0.68, and 3.11 mg/kg of atractylenolides I, II, and III, and atractyloside A, respectively), and wheat bran-processed Atractylodis Rhizoma extract solution (equal to 0.46, 0.75, 0.56, and 3.03 mg/kg of atractylenolides I, II, and III, and atractyloside A, respectively). Plasma samples (0.3 mL) were collected in heparinized tubes from the orbital sinus at […], 0.25, 0.5, 1, 1.5,2, 3, 4, 6, 8, 10, and 12 h, and were then immediately centrifuged at 17,108× g for 10 min. The supernatant was transferred to clean test tubes and stored at −20 °C until analysis. Pharmacokinetic parameters, including the area under the blood concentration-time curve (AUC0–∞), elimination half-life (t1/2), apparent volume of distribution (Vd/F), and oral clearance (CL/F) were calculated by a noncompartmental method using Drug and Statistics 3.0 (Chinese Pharmacological Society, Shanghai, China). Other parameters were obtained directly from the experimental observations.
The pharmacokinetic parameters of atractylenolides I, II, and III, and atractyloside A were analyzed by using the one-way ANOVA test with SPSS 17.0 (SPSS Inc., Chicago, IL, USA) and linear regression analysis. The integrated concentrations at each time point for the four compounds were calculated based on the AUC weighting approach using equations (1)–(3). The weighting coefficient (Wj) and the total concentration of each compound (∑AUC0–∞) were calculated by: (1) w1=AUC0–∞/∑AUC0–∞ ∑AUC0–∞ = AUC0–∞ AT-I + AUC0–∞ AT-II + AUC0–∞ AT-III + AUC0–∞ atractyloside A(2)

[4] = Short-term stability in rat plasma at room temperature; type: in vitro ADME; conditions: for RE: room temperature stability; for 0 h Measured C / 4 h Measured C / 6 h Measured C: room temperature
Method: The stabilities of atractylenolides I, II, and III, and atractyloside A in rat plasma were evaluated at three different QC concentrations using six replicates under two conditions, including at 25 °C for 6 h, and three freeze and thaw cycles. Unextracted QC samples of the four compounds at low, medium, and high concentrations were kept at ambient temperature (25 °C) for 6 h to determine the short-term stability of the compounds in rat plasma. The samples were processed and analyzed, and then the concentrations were compared with the nominal values of the QC samples. The stabilities of the plasma samples after three freeze and thaw cycles were determined. In each cycle, the QC samples were stored at −20 °C for 24 h and thawed unassisted at room temperature. When completely thawed, the samples were refrozen within 24 h. The cycle was repeated three times and the samples were analyzed after the third cycle. Stability was assessed by comparing the mean concentration of the stored QC samples with the mean concentration of freshly prepared QC samples.

[5] = Freeze-thaw stability in rat plasma; type: in vitro ADME; conditions: for One Time Measured C / Two Time Measured C / Zero Time Measured C: freeze-thaw (−20 °C / room temperature); for RE: freeze-thaw stability
Method: […] Unextracted QC samples of the four compounds at low, medium, and high concentrations were kept at ambient temperature (25 °C) for 6 h to determine the short-term stability of the compounds in rat plasma. The samples were processed and analyzed, and then the concentrations were compared with the nominal values of the QC samples. […] In each cycle, the QC samples were stored at −20 °C for 24 h and thawed unassisted at room temperature. When completely thawed, the samples were refrozen within 24 h. […] Stability was assessed by comparing the mean concentration of the stored QC samples with the mean concentration of freshly prepared QC samples.

[6] = rat, in vivo, po, 3.75 g/kg, rat plasma, oral raw Atractylodis Rhizoma 3.75 g/kg, mean ± SD, n = 5
[7] = rat, in vivo, po, 3.75 g/kg, rat plasma, oral wheat bran-processed Atractylodis Rhizoma 3.75 g/kg, mean ± SD, n = 5
[8] = high QC: added 140 (atractylenolide I), 200 (II, III), 172 (atractyloside A) ng/mL
[9] = low QC: added 5.6 (atractylenolide I), 8 (II, III), 6.88 (atractyloside A) ng/mL
[10] = medium QC: added 28 (atractylenolide I), 40 (II, III), 17.2 (atractyloside A) ng/mL

C=C1CCC[C@]2(C)C=C3OC(=O)C(C)=C3C[C@@H]12 [Atractylenolide I]
anticancer activity (apoptosis) (HL-60 cells): inducing apoptosis
anti-inflammatory activity [1]: inhibition of ear edema
treatment of spleen deficiency [2]: can be used to treat rhubarb-induced spleen deficiency

C/C=C/C#CC#C/C=C/c1ccco1 [atractylodin]
effect of stir-frying the rhizome with wheat bran on absorption [3]: promoted and accelerated the absorption

CC(C)(OC1OC(CO)C(O)C(O)C1O)C1CCC(O)(CO)C2CC(=O)C(C)(O)C2C1 (stereo not drawn) [Atractyloside A]
Cmax ratio, wheat bran-processed group vs raw group (in vivo; rat plasma, oral 3.75 g/kg): 1.20 fold
AUC(0-t) (in vivo; [6]): 138 ± 60.1 ng·h/mL
AUC(0-t) (in vivo; [7]): 307 ± 73.8 ng·h/mL
AUC(0-inf) (in vivo; rat, in vivo, po, 3.75 g/kg, Table 6, rat plasma, oral raw Atractylodis Rhizoma 3.75 g/kg): 167 ng·h/mL
AUC(0-inf) (in vivo; rat, in vivo, po, 3.75 g/kg, Table 6, rat plasma, oral wheat bran-processed Atractylodis Rhizoma 3.75 g/kg): 325 ng·h/mL
AUC(0-inf) (in vivo; [6]): 167 ± 90.1 ng·h/mL
AUC(0-inf) (in vivo; [7]): 325 ± 72.1 ng·h/mL
Cmax (in vivo; rat, in vivo, po, 3.75 g/kg, Cmax, rat plasma, oral raw Atractylodis Rhizoma 3.75 g/kg, mean ± SD, n = 5): 57.8 ± 21.6 ng/mL
Cmax (in vivo; rat, in vivo, po, 3.75 g/kg, Cmax, rat plasma, oral wheat bran-processed Atractylodis Rhizoma 3.75 g/kg, mean ± SD, n = 5): 69.4 ± 8.29 ng/mL
MRT inf (in vivo; [6]): 6.05 ± 2.58 h
MRT inf (in vivo; [7]): 4.87 ± 0.84 h
Tmax (in vivo; [6]): 0.95 ± 0.11 h
Tmax (in vivo; [7]): 1.5 h
half-life (in vivo; rat, in vivo, po, 3.75 g/kg, t1/2, rat plasma, oral raw Atractylodis Rhizoma 3.75 g/kg, mean ± SD, n = 5): 3.95 ± 2.22 h
half-life (in vivo; rat, in vivo, po, 3.75 g/kg, t1/2, rat plasma, oral wheat bran-processed Atractylodis Rhizoma 3.75 g/kg, mean ± SD, n = 5): 2.55 ± 0.98 h
RE [4, 8]: −0.17%
RE [4, 9]: −6.2%
RE [4, 10]: −0.85%
0 h Measured C [4, 8]: 172.31 ng/mL
4 h Measured C [4, 8]: 171.50 ng/mL
6 h Measured C [4, 8]: 171.32 ng/mL
0 h Measured C [4, 9]: 6.81 ng/mL
4 h Measured C [4, 9]: 6.41 ng/mL
6 h Measured C [4, 9]: 6.14 ng/mL
0 h Measured C [4, 10]: 17.16 ng/mL
4 h Measured C [4, 10]: 17.02 ng/mL
6 h Measured C [4, 10]: 16.98 ng/mL
One Time Measured C [5, 8]: 171.48 ng/mL
Two Time Measured C [5, 8]: 171.65 ng/mL
Zero Time Measured C [5, 8]: 172.73 ng/mL
One Time Measured C [5, 9]: 6.38 ng/mL
Two Time Measured C [5, 9]: 6.02 ng/mL
Zero Time Measured C [5, 9]: 6.39 ng/mL
One Time Measured C [5, 10]: 17.36 ng/mL
Two Time Measured C [5, 10]: 17.02 ng/mL
Zero Time Measured C [5, 10]: 17.86 ng/mL
RE [5, 8]: −0.03%
RE [5, 9]: −8.96%
RE [5, 10]: 1.24%

C=C1CCC[C@]2(C)C[C@]3(O)OC(=O)C(C)=C3C[C@@H]12 [Atractylenolide III]
AUC0–t (in vivo; rat, in vivo, po, 3.75 g/kg): 284.83 ± 32.94 * h·μg/L
Cmax (in vivo; rat, in vivo, po, 3.75 g/kg): 113.10 ± 19.04 ng/mL
MRT0–∞ (in vivo; rat, in vivo, po, 3.75 g/kg): 3.07 ± 0.31 h
t1/2 (in vivo; rat, in vivo, po, 3.75 g/kg): 1.81 ± 0.79 h
AUC(0-t) (in vivo; rat, in vivo, po, 3.75 g/kg): 231 ± 76.8 ng·h/mL
AUC(0-inf) (in vivo; rat, in vivo, po, 3.75 g/kg): 233 ng·h/mL
Cmax (in vivo; rat, in vivo, po, 3.75 g/kg, Cmax): 87 ± 17 ng/mL
MRT inf (in vivo; rat, in vivo, po, 3.75 g/kg): 3.48 ± 0.29 h
Tmax (in vivo; rat, in vivo, po, 3.75 g/kg): 1 h
half-life (in vivo; rat, in vivo, po, 3.75 g/kg, t1/2): 1.56 ± 0.61 h
anti-inflammatory activity [1]: inhibition of ear edema
